Data reported in patent US20070078207A1, “Stabilizer cyanoacrylate formulations” (priority 2005, published 2007).

System: L5178Y TK^±
Assay: Mouse lymphoma screening study, mutation assay without activation (protocol 431ICH1 edition 3)
Format: cell-based
Description: In order to determine mutagenic activity for cyanoacrylate compositions containing hydroquinone, a mouse lymphoma screening study was conducted according to methods known in the art. The assay protocol used was 431ICH1 edition 3 (L5178Y TK^±) and was conducted by Covance, Inc. The amount of radical stabilizer in each of the cyanoacrylate compositions was varied. The selective agent was 3.0 μg/ml 5-trifluorothymidine (TFT).

Cumulative RSG (without activation, Relative to Vehicle Control (%)): 2.0%
Daily Cell Counts Day 2 (without activation, footnote g = not subcultured): 0.9^g Cell/ML, 10E5 units
Daily Cell Counts Day 1 (without activation, selective agent 3.0 μg/ml TFT): 0.5 Cell/ML, 10E5 units
SMILES: Oc1ccc(O)cc1 [HQ in saline, hydroquinone]
mutagenic activity (result in words, mutagenic activity defined as 124.1×10E-6 units): does not exhibit mutagenicity
